Experimental data as given in patent US10526373B2, “Peptide showing melanin generation-promoting activity and use thereof” (CAREGEN CO., LTD., priority 2016, dated 2020).
No end group written: not given here.

How the values were obtained:
Type in all cases: cell-based
[1] = test system: tyrosinase; experiment: RT-PCR of melanogenesis-related genes: tyrosinase; conditions: mouse melanin cell line B16F10, 72 hours
Method: (§1) Melanocytes (B16F10 cell line) were incubated on 6-well culture plates in an incubator for 24 hours, and were treated with the peptides of the present invention with different concentrations. After RNA was extracted from the cells incubated for 72 hours, cDNA was prepared. PCR was performed by using respective primers specific to MITF and tyrosinase, which are the factors involved in melanogenesis, and the expression changes of the respective genes were observed.

[2] = test system: tyrosinase; experiment: Tyrosinase activity assay in B16F10 cell lysate (L-dopa); conditions: mouse melanin cell line B16F10, peptide at different concentrations, 72 hours
Method: Melanoma cell line (B16F10) cells were cultured in 6-well culture plates for 24 hours, and treated with the peptide with difference concentrations, followed by culture for 72 hours. The 6-well culture plates were loaded on ice and washed with cool PBS, and then 300 μl of 0.1 M sodium phosphate buffer (pH 6 lysis buffer) containing 1% Triton X-100 was added. The cells were collected in 1.5-mL tubes, and then cell membranes were disrupted by repeating five times rapid-freezing at […] and thawing. After centrifugation at 13,000 rpm for 20 minutes, the supernatant was collected in other 1.5-mL tubes, and the protein of the samples was quantified. The samples were diluted to have the same protein concentration and then dispensed in every three wells in 96-well culture plates, and then 20 μl of 10 mM L-dopa was added, followed by incubation at 37° C. for 1 hour. The absorbance was measured at 475 nm.

[3] = test system: melanocytes (B16F10 cell line); experiment: Melanogenesis assay; conditions: mouse melanin cell line B16F10, peptide at different concentrations, 72 hours
Method: After melanocytes (B16F10 cell line) in 6-well plates were cultured in an incubator at 37° C. for 24 hours, the medium of each plate was removed and exchanged with fresh medium, followed by treatment with the present peptide at different concentrations. After the incubation for 72 hours, the culture medium was removed, and the cells were taken off and then transferred into 5-ml tubes, followed by centrifugation at 13,000 rpm for 3 minutes. The supernatant was removed, and cell pellets were collected to observe melanin. Then, 150 μl of 2 M NaOH was added to the cell pellets to lyse intracellular melanin at 60° C. for 30 minutes. Then, 100 μl of the supernatant obtained from the lysis was added into each well of 96-well plates, and the absorbance was measured at 490 nm.

[4] = test system: TRP1; experiment: RT-PCR of melanogenesis-related genes: TRP1; conditions: mouse melanin cell line B16F10, 72 hours
[5] = test system: MITF; experiment: RT-PCR of melanogenesis-related genes: MITF; conditions: mouse melanin cell line B16F10, 72 hours
Method: as §1

[6] = test system: tyrosinase; experiment: Western blotting of melanogenesis-related proteins: tyrosinase; conditions: mouse melanin cell line B16F10, 72-hour incubation
Method: (§2) Melanocytes (B16F10 cell line) were incubated on 6-well culture plates in an incubator for 24 hours, and were treated with the peptides of the present invention with different concentrations. After 72-hour incubation, the cells were lysed, and the cells were subjected to western blotting using specific antibodies (two types, both by Santa Cruz Biotechnology, USA) to investigate the expression of MITF and tyrosinase, which are the factors involved in melanogenesis.

[7] = test system: CREB; experiment: Melanogenesis-related protein activity assay (CREB phosphorylation, western blotting); conditions: mouse melanin cell line B16F10, 72-hour incubation
Method: as §2, with “peptide” for “peptides”, “(Cell Signaling Technology,” for “(two types, both by Santa Cruz Biotechnology,”, “phosphorylation level” for “expression”, “CREB,” for “MITF and tyrosinase,”, “is a signaling substance” for “are the factors”

[8] = test system: MITF; experiment: Western blotting of melanogenesis-related proteins: MITF; conditions: mouse melanin cell line B16F10, 72-hour incubation
Method: as §2

FCLGPCPYIWSL (cysteine pairing not given here) [SEQ ID NO: 2]
increased: mRNA expression of tyrosinase [1] | tyrosinase activity (absorbance at 475 nm) [2] | melanogenesis (melanin, absorbance at 490 nm) [3] | mRNA expression of TRP1 [4] | mRNA expression of MITF [5] | protein expression of tyrosinase [6]

RWRRKIEN [SEQ ID NO: 1]
increased: mRNA expression of tyrosinase [1] | tyrosinase activity (absorbance at 475 nm) [2] | phosphorylation level of CREB [7] | melanogenesis (melanin, absorbance at 490 nm) [3] | mRNA expression of TRP1 [4] | protein expression of the MITF transcriptional factor [8] | mRNA expression of MITF [5] | protein expression of tyrosinase [6]
